In publication PMC3433420 (PLoS ONE, 2012):
pKd: −log10 of the molar value. Like-named read-outs stand apart in the source and are kept apart here. Residues, ends and D or L forms follow the SMILES beside them.

Assays:
GRB7 SH2 domain = GRB7 SH2 domain (Homo sapiens, UniProt Q14451); set-up: 6X His; thioredoxin; made in house; host or cells: E. coli BL21(DE3)pLysS; conditions: Protein GRB7; most recent PM interactions; ref Jones et al. 2006 / Kaushansky et al. Chem and Biol 2008; cited from earlier work
SH2 and PTB domains = conditions: most recent PM interactions, ref Jones et al. 2006 / Kaushansky et al. Chem and Biol 2008, cited from earlier work
Description: Supplement pone.0044471.s022.xlsx, sheet "Most recent PM interactions" | column: Kd || Supplement pone.0044471.s022.xlsx, sheet "All original PM interactions" | column: Kd

RASA1-N SH2 domain = target: T1, RASA1-N SH2 domain (Homo sapiens, UniProt P20936); assay: FP saturation binding assay
T1 sequence (P20936 181-272 limits assumed): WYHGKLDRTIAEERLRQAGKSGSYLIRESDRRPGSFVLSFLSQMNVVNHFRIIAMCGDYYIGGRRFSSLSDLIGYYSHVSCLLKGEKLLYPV

[1] = target: T2, PLCG1-NC tandem SH2 domains (Homo sapiens, UniProt P19174); assay: FP saturation binding assay; conditions: protein PLCG1-NC; FP, high-confidence ErbB interactions; mean of replicate hits
T2 construct: the tandem protein was included in our analysis with all internal amino acids linking the domains; 6X His; thioredoxin; made in house; host or cells: E. coli BL21(DE3)pLysS
T2 sequence (P19174 550-756 limits assumed): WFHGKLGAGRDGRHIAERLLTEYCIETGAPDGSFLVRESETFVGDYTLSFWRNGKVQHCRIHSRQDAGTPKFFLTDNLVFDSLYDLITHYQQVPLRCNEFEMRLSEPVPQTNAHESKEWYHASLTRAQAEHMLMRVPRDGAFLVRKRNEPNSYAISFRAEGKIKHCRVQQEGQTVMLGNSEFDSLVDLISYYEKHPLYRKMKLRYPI
Method: (See Figure 1A) Rhodamine-labeled peptides were dissolved in assay buffer (20 mM HEPES, 100 mM KCl, 0.1% Tween-20, 5 mM DTT, pH 7.8), diluted to a concentration of 20 nM, and plated into black 384-well plates (Corning, Corning, NY) at 5 µL/well using a Perkin Elmer EP3 pipetting workstation (V&P Scientific, Inc., San Diego, CA). SH2, PTB, and thioredoxin control proteins were plated into the first column of 2 mL 96-well plates (Corning) at a concentration of 20 µM and serially diluted 1∶2 into freezing buffer (300 mM NaCl, 50 mM Na2PO4, pH 8, 20% glycerol v/v) eleven times using a Tecan Freedom EVO 100 workstation (Tecan, Männedorf, Switzerland). For the interaction assay, 5 µL of each of the twelve protein concentrations was added to the peptide-containing 384-well plates via the EP3 resulting in a protein dilution range of 0.002–10 µM and a final volume of 10 µL; peptide concentration was fixed at 10 nM. […] Experimental values were output as millipolarization (mP) units and imported into MATLAB (The MathWorks, Inc., Natick, MA) in which equation (1) was used to determine dissociation constants (KDs) for each protein/peptide pairing by least squares nonlinear regression. [drawing 1] (1)
FP was described by the following equation: P=Iparallel-IperpendicularIparallel+Iperpendicular, where “P” denotes polarization, and “I” denotes the fluorescent intensity relative to the plane of incident light. Experimental values were output as millipolarization (mP) units and imported into MATLAB where the following equation was used to determine dissociation constants (KDs) for each protein/peptide pairing by least squares nonlinear regression:
Pobs=Pmax∙ProteinKD+Protein [picture] (1)
Peptides were initially tested for systematic plate effects across protein dilutions and nonspecific binding to thioredoxin by linear regression analysis and any effects were regressed out. The median baseline control polarization value for each plate was then subtracted from each data point to make each binding curve intersect at zero. Plates with excessive variation in baseline control polarizations on both a global and run-specific manner (Dixon’s Q test, p < 0.05) were excluded from further analysis. Outliers in each binding curve were identified and removed using an iterative procedure as follows. The residuals for each fit were used to calculate a global standard deviation of the residuals (GSDR) for each concentration of SH2 domain over all interactions, and individual data points with residuals < or > two GSDR from the global mean residual were flagged as outliers. The outlier with the largest residual from each interaction was removed and nonlinear regression was again performed. This procedure was repeated if additional outliers were identified for an interaction, discarding the interaction if the number of outliers exceeded three. […] In order to further control our false positive rate against hidden confounding variables producing binding artifacts, we sought to determine whether there was a significant relationship between the strength of an interaction and its technical replication rate at our stringent significance and filtering thresholds. We performed logistic regression on the proportion of successful replicates for each interaction query against KD for all interactions (Figure S15A). […] “High-confidence” FP interactions are defined as those having 1 - P(Observed Replication Rate | Expectation) > 0.5 and that have replicated at least twice across independent FP runs. […] The compiled FP data were organized into heatmaps generated by MATLAB and relative binding strength (µM). Peptides without at least one positive hit were classified as “no interaction” if there was no homologous sequence (i.e. identical at the +1 to +4 positions relative to the phosphotyrosine) that produced a positive interaction within the ErbB receptor family.

PLCG1-C SH2 domain = target: T3, PLCG1-C SH2 domain (Homo sapiens, UniProt P19174); assay: biochemical; assay type: binding; conditions: high-confidence ErbB interactions
T3 construct: The 6X His-tagged SH2 domain proteins used in the assay, PLCG1-C, SHC4, VAV2; thioredoxin; made in house; host or cells: E. coli BL21(DE3)pLysS
T3 sequence (P19174 668-756 limits assumed): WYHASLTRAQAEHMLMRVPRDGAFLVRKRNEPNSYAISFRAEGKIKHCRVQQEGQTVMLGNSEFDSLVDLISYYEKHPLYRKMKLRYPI

Chain of GRB7 SH2 domain (Q14451 431-527 limits assumed): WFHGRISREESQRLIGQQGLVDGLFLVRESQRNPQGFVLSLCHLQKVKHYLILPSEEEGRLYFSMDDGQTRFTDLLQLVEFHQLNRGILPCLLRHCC

For AFSPAFDNLYpYWDQDPPE [ErbB2 1222], the pKd (GRB7 SH2 domain) is listed as 6.60, the pKd (SH2 and PTB domains; Protein ABL1) is listed as 5.74 and the pKd (SH2 and PTB domains; Protein ABL2) is listed as 6.72. The pKd (SH2 and PTB domains; Protein BLK) was 7.30, the pKd (SH2 and PTB domains; Protein CRKL) was 5.84 and the pKd (SH2 and PTB domains; Protein GRB10) was 6.31. For the same compound, the pKd (SH2 and PTB domains; Protein ITK) was 6.66, the pKd (SH2 and PTB domains; Protein PIK3R1-NC) was 5.74 and the pKd (SH2 and PTB domains; Protein PIK3R3-NC) was 6.11. The pKd (SH2 and PTB domains; Protein PLCG1-NC) was 5.75, the pKd (SH2 and PTB domains; Protein PLCG2-N) was 6.22 and the pKd (SH2 and PTB domains; Protein PLCG2-NC) was 6.59. The pKd (SH2 and PTB domains; Protein RASA1-N) was 6.30, the pKd (SH2 and PTB domains; Protein RASA1-NC) was 6.66 and the pKd (SH2 and PTB domains; Protein SH2B2) was 5.83. For the same compound, the pKd (SH2 and PTB domains; Protein SH2D3A) was 5.80, the pKd (SH2 and PTB domains; Protein SH2D3C) was 6.15 and the pKd (SH2 and PTB domains; Protein SHC1-PTB) was 6.21. For the same compound, the pKd (SH2 and PTB domains; Protein SHC2-PTB) was 6.34, the pKd (SH2 and PTB domains; Protein SHC3) was 5.77 and the pKd (SH2 and PTB domains; Protein SHF) was 6.23. For the same compound, the pKd (SH2 and PTB domains; Protein SRC) was 6.70, the pKd (SH2 and PTB domains; Protein SYK-C) was 5.71 and the pKd (SH2 and PTB domains; Protein SYK-N) was 6.70. For the same compound, the pKd (SH2 and PTB domains; Protein SYK-NC) was 6.34, the pKd (SH2 and PTB domains; Protein TEC) was 5.79 and the pKd (SH2 and PTB domains; Protein TENC1) was 6.08. The pKd (SH2 and PTB domains; Protein TNS3) was 5.89, the pKd (SH2 and PTB domains; Protein VAV3) was 5.95 and the pKd (SH2 and PTB domains; Protein YES1) was 6.66.

For `CC(C)C[C@H](NC(=O)[C@H](Cc1ccc(OP(=O)(O)O)cc1)NC(=O)[C@H](CCC(=O)O)NC(=O)[C@H](CCC(N)=O)NC(=O)[C@H](CCCCN)NC(=O)[C@@H]1CCCN1)C(=O)N[C@@H](CC(N)=O)C(=O)N1CCC[C@H]1C(=O)N[C@H](C(=O)N[C@@H](CCC(=O)O)C(=O)N[C@@H](CCC(=O)O)C(=O)N[C@@H](CC(N)=O)C(=O)N[C@@H](CC(=O)O)C(=O)O)C(C)C` [ErbB4 1162 13-mer] (HELM PEPTIDE1{P.K.Q.E.[O=C([C@H](Cc1ccc(OP(=O)(O)O)cc1)N[*:1])[*:2]].L.N.P.V.E.E.N.D}$$$$V2.0), the pKd (RASA1-N SH2 domain) was 5.54 and the pKd [1] was 5.27.

With `CC(C)C[C@H](NC(=O)[C@H](CO)NC(=O)[C@H](Cc1ccccc1)NC(=O)[C@H](CCC(=O)O)NC(=O)[C@H](CO)NC(=O)[C@H](CC(C)C)NC(=O)[C@H](Cc1ccc(OP(=O)(O)O)cc1)NC(=O)[C@H](CCC(=O)O)NC(=O)[C@@H]1CCCN1C(=O)[C@H](CC(N)=O)NC(=O)[C@@H](N)CCC(=O)O)C(=O)N[C@@H](CCCCN)C(=O)N[C@@H](CC(=O)O)C(=O)O` [ErbB4 1284 13-mer] (HELM PEPTIDE1{E.N.P.E.[O=C([C@H](Cc1ccc(OP(=O)(O)O)cc1)N[*:1])[*:2]].L.S.E.F.S.L.K.D}$$$$V2.0) the pKd (PLCG1-C SH2 domain; protein PLCG1-C, mean of replicate hits) was 5.43.

`CC(C)C[C@H](NC(=O)[C@H](Cc1ccc(OP(=O)(O)O)cc1)NC(=O)[C@H](CCC(=O)O)NC(=O)[C@H](C)NC(=O)[C@H](CC(N)=O)NC(=O)[C@@H](N)CCC(=O)O)C(=O)N[C@@H](CCCNC(=N)N)C(=O)N[C@H](C(=O)N[C@@H](C)C(=O)N1CCC[C@H]1C(=O)N[C@@H](CCC(N)=O)C(=O)N[C@@H](CO)C(=O)N[C@@H](CC(=O)O)C(=O)O)C(C)C` [ErbB1 1197 13-mer] (HELM PEPTIDE1{E.N.A.E.[O=C([C@H](Cc1ccc(OP(=O)(O)O)cc1)N[*:1])[*:2]].L.R.V.A.P.Q.S.D}$$$$V2.0) showed a pKd (PLCG1-C SH2 domain; Protein PLCG1-C, FP saturation binding, mean over replicate hits) of 5.25.
